According to patent publication US12486253B2, “Therapeutics for the degradation of mutant BRAF” (C4 THERAPEUTICS, INC., priority 2021, dated 2025):

Key:
[1] = test system: ERK phosphorylation; assay: ERK phosphorylation (pERK) in A375 cells; format: cell-based
[2] = test system: A375 cells expressing the oncogenic NRAS^Q61K mutation; assay: Cellular growth over time of A375 cells expressing NRAS^Q61K; format: cell-based
[3] = test system: H1666 cells endogenously expressing the class III BRAF mutation G466V; assay: Cellular growth over time in H1666 cells; format: cell-based; details: G466V
[4] = test system: A375 cells; assay: Cellular confluence of A375 cells by live cell imaging; format: cell-based; details: end of the 7-day experiment
[5] = test system: phospho-ERK (T202/Y204); assay: HTRF phospho-ERK (T202/Y204) inhibition assay in A375 cells; format: cell-based; details: Homo sapiens, A-375, 24 hrs, mean of at least n = 3, read-out: pERK IC50
Protocol: (§1) A375 (harboring BRAF homozygous V600E mutation) were purchased from ATCC. DMEM Medium without phenol red and supplemented with L-glutamine was purchased from Corning (Corning, NY, USA). Advanced phospho-ERK (Thr202/Tyr204) HTRF assay kits were purchased from Cisbio (Bedford, MA, USA). Cell culture flasks and 384-well microplates were acquired from VWR (Radnor, PA, USA) or Corning (Corning, NY, USA).
(§2) Degradation of activated phospho-ERK (T202/Y204) protein was determined based on quantification of FRET signal using the Advanced phospho-ERK (T202/Y204) HTRF assay kit. Test compounds were added to the 384-well plate from a top concentration of 10 μM with 11 points, half log titration in duplicates. A375 cells were added into 384-well plates at a cell density of 8000 cells per well, respectively. The plates were kept at 37° C. with 5% CO2 for 24 hours. Cells treated in the absence of the test compound were the negative control. Positive control was set by wells containing all reagents but no cells. FRET signal was acquired on EnVision™ Multilabel Reader (PerkinElmer, Santa Clara, CA, USA).

[6] = test system: A375 cells; assay: CellTiter-Glo cell growth inhibition, A375 cells; format: cell-based; details: Homo sapiens, A-375, 72 hr, mean of at least n = 3
Protocol: (§3) A375 cell viability was determined based on quantification of ATP using CellTiter-Glo® 2.0 luminescent Assay kit, which signals the presence of metabolically-active cells. Briefly, test compound was added to 384-well plates at a top concentration of 10 μM with 14 points, half log titration in duplicates. A375 cells were seeded into the 384-well plates in DMEM medium containing 10% FBS at a cell density of 250 cells per well. Cells treated in the absence of the test compound were the negative control, normalized to 100% viability, and cells treated in the absence of CellTiter-Glo® 2.0 were the positive control, normalized to 0% viability. A375 cells were incubated at 37° C. with 5% CO2 for 72 hr. CellTiter-Glo reagent was then added to the cells and Luminescence was acquired on EnVision™ Multilabel Reader (PerkinElmer, Santa Clara, CA, USA).

[7] = test system: phospho-ERK (T202/Y204); assay: HTRF phospho-ERK (T202/Y204) assay in A375-NRAS^Q61K cells; format: cell-based; details: 24 hrs, mean of at least n = 3, read-out: pERK IC50
Text: as §1, with “A375-NRAS^Q61K cells” for “A375”, “V600E mutation and NRAS homozygous Q61K” for “V600E”
as §2, with “A375-NRAS^Q61K” for “A375”, “2000” for “8000”, “well.” for “well, respectively.”

[8] = test system: A375-NRAS^Q61K cells; assay: CellTiter-Glo growth inhibition assay, A375-NRAS^Q61K cells; format: cell-based; details: 96 hr, mean of at least n = 3
Protocol: A375-NRAS^Q61K cells (harboring BRAF homozygous V600E mutation and NRAS homozygous Q61K mutation) were purchased from ATCC. DMEM Medium (without phenol red and supplemented with L-glutamine) was purchased from Corning (Corning, NY, USA). CellTiter-Glo® 2.0 Assay was purchased from Promega (Madison, WI, USA). Cell culture flasks and 384-well microplates were acquired from VWR (Radnor, PA, USA) or Corning (Corning, NY, USA).
as §3, with “A375-NRAS^Q61K cell viability” for “A375 cell viability”, “in duplicates. A375-NRAS^Q61K cells were” for “in duplicates. A375 cells were”, “CO2 for 96 hr. CellTiter-Glo” for “CO2 for 72 hr. CellTiter-Glo”

[9] = target: BRAF V600E, test compound and CRBN ternary complex (Homo sapiens, UniProt P15056+Q96SW2, V600E); assay: AlphaLISA ternary complex formation assay; format: binding; details: GST-BRAF V600E 16 nM, His-CRBN 64 nM
BRAF V600E, test compound and CRBN ternary complex, sequence (P15056 whole entry V600E): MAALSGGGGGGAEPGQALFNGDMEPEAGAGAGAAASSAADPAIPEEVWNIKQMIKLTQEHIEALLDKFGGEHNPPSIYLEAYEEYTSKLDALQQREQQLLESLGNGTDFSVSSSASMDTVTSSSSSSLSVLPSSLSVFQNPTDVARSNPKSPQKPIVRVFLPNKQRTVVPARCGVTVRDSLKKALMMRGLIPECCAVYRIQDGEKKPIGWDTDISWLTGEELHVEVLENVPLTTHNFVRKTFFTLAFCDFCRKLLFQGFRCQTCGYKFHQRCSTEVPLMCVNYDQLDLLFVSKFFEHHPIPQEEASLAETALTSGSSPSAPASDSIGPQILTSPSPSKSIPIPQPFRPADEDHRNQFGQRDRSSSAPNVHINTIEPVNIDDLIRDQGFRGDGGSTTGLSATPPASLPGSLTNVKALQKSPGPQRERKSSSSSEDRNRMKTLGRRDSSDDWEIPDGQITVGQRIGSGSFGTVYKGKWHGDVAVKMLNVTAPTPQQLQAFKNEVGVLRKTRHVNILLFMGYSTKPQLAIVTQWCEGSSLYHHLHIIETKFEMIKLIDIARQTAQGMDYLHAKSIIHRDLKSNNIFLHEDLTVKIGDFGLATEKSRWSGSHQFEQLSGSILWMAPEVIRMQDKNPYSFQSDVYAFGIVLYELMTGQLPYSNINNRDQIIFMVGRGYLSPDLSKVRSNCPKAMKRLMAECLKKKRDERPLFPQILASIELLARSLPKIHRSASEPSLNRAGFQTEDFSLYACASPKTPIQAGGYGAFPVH
BRAF V600E, test compound and CRBN ternary complex, sequence (Q96SW2 whole entry): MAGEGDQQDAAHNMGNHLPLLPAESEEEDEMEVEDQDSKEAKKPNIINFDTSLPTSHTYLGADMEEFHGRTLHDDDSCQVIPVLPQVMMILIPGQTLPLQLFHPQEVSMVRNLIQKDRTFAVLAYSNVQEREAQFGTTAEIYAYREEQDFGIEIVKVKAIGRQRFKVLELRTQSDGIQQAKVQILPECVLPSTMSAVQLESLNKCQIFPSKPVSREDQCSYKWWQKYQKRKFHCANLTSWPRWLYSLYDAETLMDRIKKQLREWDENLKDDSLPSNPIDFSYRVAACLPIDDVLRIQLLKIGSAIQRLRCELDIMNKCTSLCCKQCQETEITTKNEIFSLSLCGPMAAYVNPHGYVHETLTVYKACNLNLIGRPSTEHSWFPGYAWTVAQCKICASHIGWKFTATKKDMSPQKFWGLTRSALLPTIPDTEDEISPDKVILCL
Protocol: Formation of the ternary complex between BRAF V600E, test compound and CRBN was quantified using AlphaLISA® assay. GST-tagged BRAF V600E and His-tagged CRBN were labeled with a donor/acceptor AlphaLISA® pair, and complex formation was monitored via a change in the Alpha-signal. Signal from the control wells was used as a normalization control.
Characterization of the ternary complex formation between GST-BRAF V600E, Compound 157 and his-CRBN was carried out using an AlphaLISA® assay. Compounds were dispensed from serially diluted DMSO stock in low dead volume plates into gray 384-well AlphaPlates using acoustic technology to 1% of total reaction volume. Compounds were arranged vertically in rows A through P. Concentration series were horizontal: columns 1-11, and then duplicates in columns 12-22.
Excitation of the donor beads results in generation of singlet oxygen molecules. […]
A 10 μL mixture containing 16 nM of BRAF V600E and 64 nM of CRBN in 50 mM HEPES (pH 7.4), 200 mM NaCl, 1 mM TCEP, 0.05% Pluronic Acid, 0.1% BSA was added to the wells containing test compounds (columns 1-22) and the negative control wells (column 23). […] Plates were then read on an Envision plate reader with an appropriate AlphaLISA® filter set.

[10] = target: BRAF V600E (Homo sapiens, UniProt P15056, V600E); assay: Western blot of BRAF V600E levels in A375 cells; format: cell-based; parameters: host or cells: A375
BRAF V600E, sequence (P15056 whole entry V600E): as the sequence (P15056 whole entry V600E) above

[11] = test system: LOXL4; assay: Global proteomics profiling, A375 cells; format: cell-based, human; details: 300 nM, 24 hours
Protocol: Each cell line was treated in duplicate with either DMSO or Compound 157 (final concentration 300 nM) for 24 hours in an incubator at 37° C. with 5% CO2. After the 24-hour incubation, cells were harvested, washed twice with PBS, and snap frozen in liquid nitrogen. Samples were re-suspended in lysis buffer [8 M urea, 50 mM HEPES (pH 8.5), 50 mM NaCl, 1× protease inhibitor cocktail] and lysed by sonication at 4° C. with 85% amplitude in a pulse setting with 30 seconds on and 30 seconds off for a total sonication time of 5 minutes. Lysates were centrifuged at maximum speed for 10 minutes at 4° C. and the supernatant collected, reduced for 1 hour at room temperature with 5 mM TCEP, and the cysteine residues were then alkylated with 15 mM iodoacetamide (room temperature, in dark, 30 minutes). Protein content was extracted by methanol-chloroform precipitation and subsequent ice-cold acetone washes. Protein pellets were resuspended in 8 M urea, 50 mM HEPES (pH 8.5) buffer and protein concentrations were measured by BCA assay. […]
For peptide tandem mass tag (TMT) labeling, 100 μg of peptides per sample was prepared at […] concentration in 200 mM HEPES (pH 8.5), 30% acetonitrile (ACN) and each the specific TMT reagent. […] TMT reporter ion intensities were quantified by extracting the signal-to-noise ratio for each. […]

IC50 [5] [nM]	GI50 [6] [nM]	IC50 [7] [nM]	GI50 [8] [nM]	Ternary complex formation (concentration dependence) [9]	BRAF V600E levels [10]	SMILES	ERK phosphorylation by western blot [1]	cell growth inhibition [2]	cell growth inhibition [3]	cellular confluence [4]	LOXL4 protein level change [11]
13.5	22.5	36.8	794	no complex formation was observed	remain unchanged	CCN(C)S(=O)(=O)Nc1ccc(F)c(Oc2ccc3ncn([C@H]4COC5(CCN(C(=O)CC6(O)CCN(c7cc8c(cc7F)c(N7CCC(=O)N(C)C7=O)nn8C)CC6)CC5)C4)c(=O)c3c2)c1C#N [Compound 157^NMe, reference compound]	not as pronounced	not inhibited	not inhibited as significantly	approximately 70%	–
–	–	–	–	–	–	CC(C)(C)c1nc(-c2cccc(NS(=O)(=O)c3c(F)cccc3F)c2F)c(-c2ccnc(N)n2)s1 [dabrafenib, reference compound]	–	–	–	–	decreased on the dabrafenib treated samples, to a lesser extent
